Laboratory results published in patent publication US4511565A, “7α-Acylthio-1α,2α-methylene- 3-oxo-17α-pregn-4-ene-21,17-carbolactones, their production and pharmaceutical preparations containing them” (Schering Aktiengesellschaft, priority 1982, dated 1985).
Entries after “also recorded” stand apart in the source; their conditions may differ.

Experiments:
aldosterone = assay: antialdosterone effect in the experimental model by Hollmann; format: in vivo; conditions: spironolactone=1
From the text: The new compounds of Formula I have the properties of neutralizing or reversing the effect of aldosterone or deoxycorticosterone on the elimination of sodium and potassium. The compounds according to this invention are thus suited for the treatment of certain forms of hypertension, e.g., those treatable by spironolactone, edemas, primary aldosteronism, and other endocrine disturbances caused by aldosterone. They can also be used as diuretics.

male patients = conditions: extended treatment of male patients; traced to antiandrogenic side effect; cited from earlier work
women = conditions: ascribed to the gestagenic side effect; cited from earlier work

| SMILES | Relative antialdosterone effect (aldosterone) | undesirable endocrine side effects in men (male patients) | side effects on women (women) |
| --- | --- | --- | --- |
| CC(=O)S[C@@H]1CC2=CC(=O)[C@@H]3C[C@@H]3[C@]2(C)[C@H]2CC[C@@]3(C)[C@@H]([C@@H]4C[C@@H]4[C@@]34CCC(=O)O4)[C@H]12 [B, 7α-acetylthio-1α,2α;15β,16β-dimethylene-3-oxo-17α-pregn-4-ene-21,17-carbolactone] | 2-3 | – | – |
| CC(=O)S[C@@H]1CC2=CC(=O)[C@@H]3C[C@@H]3[C@]2(C)[C@H]2CC[C@@]3(C)[C@@H]([C@H]4C[C@H]4[C@@]34CCC(=O)O4)[C@H]12 [C, 7α-acetylthio-1α,2α;15α,16α-dimethylene-3-oxo-17α-pregn-4-ene-21,17-carbolactone] | 3-4 | – | – |
| CC(=O)S[C@@H]1CC2=CC(=O)CC[C@]2(C)[C@H]2CC[C@@]3(C)[C@@H](CC[C@@]34CCC(=O)O4)[C@H]12 [Spironolactone, spironolactone] | – | gynecomastia; also recorded: impotence | amenorrhea; also recorded: menstrual irregularities |
